In the test the test system is SKVLB (Ovarian; multidrug resistant). The experiment in a line: In vitro cytotoxicity, microculture tetrazolium (MTT) assay, SKVLB. The test is classed as cell-based, human. The note with it: ratio SKVLB / SKOV3. The procedure: In Vitro Cytotoxicity--Microculture Tetrazolium Assay
The microculture tetrazolium assay was used to test in vitro cytotoxicity. This assay is described in Plumb, J. A. et al., 1989 Cancer Research 49, 4435-4440, which is herein incorporated by reference. The cytotoxicity of compounds towards tumor cells is measured in vitro using the assay. This assay method is based upon the ability of live, but not dead cells to reduce the yellow water soluble dye 3-(4;5-dimethylthiazol-2-yl)-2,5-diphenyltetrazolium bromide (MTT) to its water insoluble purple formazan product.
Human Tumor Cell lines, used were:
SKVLB (Ovarian; multidrug resistant)--Dr. V. Ling, Ontario
The cells were maintained in exponential growth in culture in minimal essential media (MEM) supplemented with non-essential amino acids, and containing 15% (v/v) fetal bovine serum, 5 mM L-glutamine, 1 mM sodium pyruvate, and 0.1 U/ml insulin. All cell lines were grown at 37° C. in an atmosphere of 5% CO2 in air.
Test compounds: 20 mM in DMSO and diluted to a final concentration of 200 μM in culture medium before use.
The following is the generic description of the assay method. It should be noted that although the conditions described work well with the cells listed above, the initial plating density and the MTT concentration used should be verified for each new cell line used to test compounds.
For each assay, doxorubicin is included as an inter-assay standard. This allows us to monitor the behaviour of the assay in general, and in particular, to check that the SKVLB line has maintained its resistant phenotype.
The plate layout is done in the following manner: The assays are carried out in 96-well (8 well×12 well) microtiter plates. Serial dilutions of the compound are tested along the length of the plate. A 1:3 serial dilution of compound in culture medium covers a concentration range from 100 μM to 1.7 nM. Each concentration of compound is tested in quadruplet, allowing two compounds to be tested per plate. Wells containing no cells (blank) and cells with no test compound (control) are included on each plate.
Cells are plated out in 100 μl of culture medium in the microtiter plates at a density of around 1,500-4,000 cells per well. The plates are incubated overnight to allow the cells to become adherent after which the test compound is added (100 μl of appropriate dilution per well). The cells are incubated with test compound at 37° C. for 48 h after which the compound is replaced with fresh medium. After a further 48 h incubation at 37° C., 50 μl of MTT solution (2 mg/ml) is added to each well. The plates are incubated in the dark for 4 h at 37° C. after which the medium is removed. The MTT formazan product is extracted from the cells by the addition of 200 μl DMSO followed by 50 μl of Sorensen's buffer. The plates are shaken briefly and the absorbance at 570 nm is read using a Molecular Devices UV max plate reader. Curves are fit to the MTT assay data using a four parameter logistic equation, and the data are normalized to fit a 0% to 100% survival scale.

Consider `COC1OC(C(=O)NCCN2CCOCC2)=CC2=C1C(=O)c1ccccc1C2=O` (stereo not shown) [BCH2170, 1-methoxy-3-[2-(N-morpholino)ethylaminocarbonyl]-5,10-dioxo-5,10-dihydro-1H-naphtho-[2,3-c]-pyran], for which the VLB/OV3 is recorded as 1.52.

As to `CC(=O)O[C@H]1[C@@H](I)[C@H](O[C@H]2O[C@H](C(C)=O)CC3=C2C(=O)c2ccccc2C3=O)O[C@@H](C)[C@H]1OC(C)=O` [BCH1666, (1'S,1R,3S)-methyl-(1-[2',6'-dideoxy-3'-4'-diacetoxy-2'-iodo-L-lyxohexopyranose]-5,10-dioxo-3,4,5,10-tetrahydronaphtho [2,3-c]-pyran-3-yl) ketone], the VLB/OV3 was determined as 0.75.

As to `CO[C@H]1C[C@H](O[C@H]2O[C@H](C(C)=O)CC3=C2C(=O)c2ccccc2C3=O)O[C@@H](C)[C@H]1OS(C)(=O)=O` [BCH2070, (1'-S,1-R,3-S)-methyl-(1-[2',3',4',6' tetradeoxy-3'-methoxy-4'-O-methanesulfonyl-L-lyxohexopyranose)-5,10-dioxo-3,4,5,10 tetrahydronaphtho-[2,3-c]pyran-3-yl) ketone], the VLB/OV3 was 14.34-15.

On to `COC(=O)[C@]1(C)CC2=C(C(=O)c3ccccc3C2=O)[C@H](O[C@H]2C[C@H](NC(=O)C(F)(F)F)[C@H](O)[C@H](C)O2)O1` [BCH2081, (1'S,1S,3S)-1-(3'-trifluoroacetamido-2',3',6'-trideoxylyxohexopyranose)-3-methoxycarbonyl-3-methyl-5,10-dioxo-4,5,10-trihydro-1H-naphtho-[2,3-c]-pyran], for which the VLB/OV3 amounted to 15.

Regarding `CO[C@H]1C[C@H](O[C@H]2O[C@H](C(C)=O)C[C@]34O[C@]23C(=O)c2ccccc2C4=O)O[C@@H](C)[C@H]1OS(C)(=O)=O` [BCH2141, (1'-S,1-R,3-S,4a-S,10a-S)-methyl-(1-[2',3',4',6'-tetradeoxy-3'-methoxy-4'-O-methanesulfonyl-L-lyxohexopyranose)-4a,10a-epoxy-5,10-dioxo-3,4,5,10-tetrahydronaphtho-[2,3-c]pyran-3-yl) ketone], the VLB/OV3 is recorded as 1.23.

In the case of `COC(=O)[C@H](CC(C)C)NC(=O)[C@H](CO[C@H]1O[C@H](C(C)=O)CC2=C1C(=O)c1ccccc1C2=O)NC(=O)OC(C)(C)C` [BCH1998, (1S,2'S,3S,5'S)-Methyl-(1-O-[N-BOC-Serine-Leucine-Me ester]-5,10-dioxo-3,4,5,10-tetrahydro-1-H-naphtho [2,3-c]pyran-3-yl) ketone], the VLB/OV3 is given as 13.28.

Regarding `CC(=O)[C@@]1(C)CC2=C(C(=O)c3ccccc3C2=O)[C@H](O[C@H]2C[C@H](NC(=O)C(F)(F)F)[C@H](O)[C@H](C)O2)O1` [BCH2082, (1'S,1S,3R)-1-(3'-trifluoroacetamido-2',3',6-trideoxy-L-lyxohexopyranose)-3-acetyl-3-methyl-5,10-dioxo-4,5,10-trihydro-1H-naphtho-[2,3-c]-pyran], the VLB/OV3 is given as 3.

Turning to `CC(=O)[C@@H]1CC2=C(C(=O)c3ccccc3C2=O)[C@@H](O[C@H]2C[C@H](NC(=O)C(F)(F)F)[C@H](O)[C@H](C)O2)S1` [BCH2037, (1'S,1S,3S)-1-(3'-trifluoroacetamido-2',3',6'-trideoxy-L-lyxohexopyranose)-5,10-dioxo-3,4,5,10-tetrahydro-1H-naphtho-[2,3-c]-thiopyran], the VLB/OV3 is listed as 0.93-6.41.

On to `CC(=O)C1CC2=C(C(=O)c3ccccc3C2=O)C(OCC2CCCN(C(=O)OC(C)(C)C)C2)O1` (mixture of isomers) [BCH2060, Methyl-(1-O-[N-BOC-3-piperidinemethanol]-5,6-dioxo-3,4,5,10-tetrahydronaphthaleno-[2,3-c]pyran-3-yl) ketone, mixture of isomers], for which the VLB/OV3 is on record as 2.19.

Regarding `COC1OC(C(=O)Nc2ccccc2)=CC2=C1C(=O)c1ccccc1C2=O` (stereo not shown) [BCH2044, 1-methoxy-3-N-anilinylcarbonyl-5,10-dioxo-5,10-dihydro-1H-naphtho-[2,3-c]-pyran], the VLB/OV3 turned out to be 3.55.

Values taken from patent US5736523A, “Antineoplastic heteronapthoquinones” (Biochem Pharma Inc., priority 1995, dated 1998).
